Results as given in publication PMC8667925, “New 1,2,4-oxadiazole derivatives with positive mGlu4 receptor modulation activity and antipsychotic-like properties” (Journal of Enzyme Inhibition and Medicinal Chemistry, 2021).
Entries after “also recorded” stand apart in the source; their conditions may differ. Marks after values point to notes of the source that are not given here.

Legend:
[1] = test system: Albino Swiss mice; experiment: DOI-induced head twitch test (HTR); format: in vivo; details: DOI 2.5 mg/kg i.p.
Experimental: The compounds were dissolved in a small amount of 100% EtOH and then adjusted with 20% cyclodextrin, and the pH was adjusted to 6.0. The investigated compounds were administered intraperitoneally (i.p.) 60 min before the behavioural test. Control drugs i.e. diazepam, clozapine and imipramine (Sigma–Aldrich, St. Louis, USA), were administered i.p. 60 min before the behavioural test. Cyclodextrin (20%) was used as a vehicle. All solutions were prepared immediately prior to the experiments and were administered at a constant volume of 10 ml/kg.
The experiments were performed according to the procedure described in our previous studies[75]^,[80]. Briefly, to habituate mice to the experimental environment, each animal was transferred to a 12 cm (diameter) × 20 cm (height) glass cage lined with sawdust 30 min before treatment. Test compounds were administered intraperitoneally (i.p.) at doses of 2.5, 5, and 10 mg/kg body weight 60 min before the test was performed. The head twitch response (HTR) in mice was induced by DOI (2.5 mg/kg, i.p.). Immediately after treatment, the number of head twitches was counted during a 20 min session. Haloperidol and clozapine were used as the reference compounds at active doses of 0.2 and 5 mg/kg, respectively.

[2] = biological target: T1, mGlu7 receptor (Homo sapiens, UniProt Q14831); experiment: cAMP accumulation assay in cells expressing mGlu7 receptor (agonist, PAM, NAM modes); format: cell-based; details: 10 µM, agonist mode
T1 construct: mGlu4 receptor NM_000841, mGlu7 receptor NM_000844.2, and mGlu8 receptor NM_000845; expressed in transfected cells; host or cells: T-REx 293
T1 sequence (Q14831 35-915): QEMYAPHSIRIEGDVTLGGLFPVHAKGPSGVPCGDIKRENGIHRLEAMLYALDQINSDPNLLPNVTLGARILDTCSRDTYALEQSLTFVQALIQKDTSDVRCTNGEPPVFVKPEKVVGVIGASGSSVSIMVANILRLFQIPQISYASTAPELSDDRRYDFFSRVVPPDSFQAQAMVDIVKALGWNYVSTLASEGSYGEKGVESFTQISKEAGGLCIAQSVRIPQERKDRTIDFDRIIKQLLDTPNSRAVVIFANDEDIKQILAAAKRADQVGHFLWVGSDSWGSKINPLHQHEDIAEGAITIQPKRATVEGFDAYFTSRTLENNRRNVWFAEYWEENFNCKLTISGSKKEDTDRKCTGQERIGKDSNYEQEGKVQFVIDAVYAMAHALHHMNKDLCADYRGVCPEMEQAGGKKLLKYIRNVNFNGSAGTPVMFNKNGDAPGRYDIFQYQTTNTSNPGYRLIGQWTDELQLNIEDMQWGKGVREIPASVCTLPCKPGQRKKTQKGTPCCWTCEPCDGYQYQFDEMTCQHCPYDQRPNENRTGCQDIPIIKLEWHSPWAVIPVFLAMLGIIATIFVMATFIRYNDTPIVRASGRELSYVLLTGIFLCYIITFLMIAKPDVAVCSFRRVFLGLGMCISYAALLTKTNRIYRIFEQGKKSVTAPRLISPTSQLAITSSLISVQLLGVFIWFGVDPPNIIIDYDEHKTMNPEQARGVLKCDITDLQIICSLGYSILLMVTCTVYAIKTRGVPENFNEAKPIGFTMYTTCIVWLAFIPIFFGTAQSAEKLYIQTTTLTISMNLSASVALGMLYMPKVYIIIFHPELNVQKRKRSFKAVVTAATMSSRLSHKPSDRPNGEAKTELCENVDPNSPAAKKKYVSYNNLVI
Experimental: (§1) The compounds were tested in the agonist, PAM (in the presence of EC20 concentration of L-Glu) or NAM (with EC80 of L-Glu) modes of forskolin-induced cAMP using T-REx 293 cells expressing the protein of a given receptor.
(§2) Figure 4. The activity of compounds 34, 37, 49, 52, 60, 62 and reference drugs MMPIP (a selective NAM of mGlu7 receptor) and AZ12216052 (a PAM of mGlu8 receptor) tested at a concentration of 10 μM in the cAMP accumulation assay in cells expressing mGlu7 and mGlu8 receptors. The percent activity refers to two extreme FRET signals: 0% corresponds to forskolin treatment alone and 100% to maximal FRET signal for the control cells (without any treatment). A/D – agonistic activity; B/E – PAM activity measured in the presence of L-Glu at the EC20 concentration (0.1 mM for mGlu7 receptor, and 1 μM for mGlu8 receptor); C/F – NAM activity measured in the presence of L-Glu at the EC80 concentration (1 mM for mGlu7 receptor, 10 μM for Glu8 receptor).
(§3) Determination of the intracellular cAMP through a homogeneous time-resolved fluorescence (HTRF) cAMP dynamic 2 kit from Cisbio (Codolet, France) was described previously by Chruścicka et al.[91]. Briefly, cells were grown in DMEM supplemented with 10% foetal bovine serum (FBS) (tetracycline free). Forty-eight hours before the experiments, mGlu receptor expression was induced by the addition of 0.75 µg/mL tetracycline. Twenty hours before the experiment, FBS and L-Glu were removed from the medium. Thereafter, the cells were scraped and centrifuged. A cell pellet was suspended in Hanks-HEPES (130 mM NaCl, 5.4 mM KCl, 1.8 mM CaCl2, 0.8 mM MgSO4, 0.9 mM NaH2PO4, 20 mM HEPES, and 3.25 mM glucose; pH 7.4). Then, the cell suspension was incubated in the presence of 10 µM forskolin (or 3 µM forskolin for mGlu7 receptor), the agonist L-glutamate and a compound for 5 min. Next, 10 µl of the cell suspension was mixed with 5 µl of cAMP-d2 conjugate and 5 µL of anti-cAMP cryptate conjugate. After 1 h of incubation at rt, the fluorescence at 620 nm and 665 nm was read (Tecan Infinite M1000). The results were calculated as the 665 nm/620 nm ratio multiplied by 10^4. Each sample was prepared in triplicate.

[3] = biological target: T2, mGlu4 receptor (Homo sapiens, UniProt Q14833); experiment: forskolin-stimulated cAMP assay, PAM mode (EC20 of L-Glu), T-REx 293 cells; format: cell-based; details: SEM where given; for EC50 / Emax: PAM mode; for EC50: EC20 (3 µM) L-Glu, T-REx 293 cells expressing human mGlu4 receptor; for Emax: T-REx-293, human mGlu4, read-out: GluMax; for Fold shift of L-Glu dose-response curve: in the presence of 10 µM of compound
T2 construct: mGlu4 receptor NM_000841, mGlu7 receptor NM_000844.2, and mGlu8 receptor NM_000845; expressed in transfected cells; host or cells: T-REx 293
T2 sequence (Q14833 33-912): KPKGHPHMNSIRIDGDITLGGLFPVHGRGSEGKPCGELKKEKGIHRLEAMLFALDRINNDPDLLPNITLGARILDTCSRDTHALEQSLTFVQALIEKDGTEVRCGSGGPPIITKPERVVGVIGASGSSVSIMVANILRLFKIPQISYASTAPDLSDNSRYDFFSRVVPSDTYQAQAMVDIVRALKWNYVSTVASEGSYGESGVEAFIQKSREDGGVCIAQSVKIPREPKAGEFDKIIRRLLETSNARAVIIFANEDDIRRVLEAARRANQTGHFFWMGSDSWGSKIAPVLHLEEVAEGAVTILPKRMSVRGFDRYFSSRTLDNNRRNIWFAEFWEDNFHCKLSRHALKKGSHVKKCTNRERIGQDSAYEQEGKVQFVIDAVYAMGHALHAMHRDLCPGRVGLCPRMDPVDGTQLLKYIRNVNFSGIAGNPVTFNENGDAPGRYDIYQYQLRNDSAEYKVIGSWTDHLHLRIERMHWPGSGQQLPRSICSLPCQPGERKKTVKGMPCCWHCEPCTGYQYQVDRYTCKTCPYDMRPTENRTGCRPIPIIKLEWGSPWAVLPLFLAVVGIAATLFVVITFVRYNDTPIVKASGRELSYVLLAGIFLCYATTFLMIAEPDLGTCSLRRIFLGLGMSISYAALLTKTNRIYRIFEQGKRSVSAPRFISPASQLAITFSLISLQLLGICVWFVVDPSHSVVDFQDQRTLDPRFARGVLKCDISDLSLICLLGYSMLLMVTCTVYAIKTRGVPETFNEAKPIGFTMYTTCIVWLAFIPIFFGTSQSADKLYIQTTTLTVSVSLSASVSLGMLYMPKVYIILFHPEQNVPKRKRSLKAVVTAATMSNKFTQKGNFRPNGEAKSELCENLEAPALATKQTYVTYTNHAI
Experimental: The activity of the compounds was assessed in vitro in a forskolin-stimulated cAMP assay in T-REx 293 cells expressing human mGlu4 receptors in the presence of an EC20 concentration of L-Glu; a PAM was identified if it potentiated cAMP inhibition by the Gi/o-dependent pathway of mGlu4 receptor activation; i.e. if it was able to produce a leftward shift in the potency of the endogenous agonist.
as §3
Statistical calculations were performed using GraphPad Prism 5.04 software (GraphPad Software, La Jolla, CA, USA). The curves were fitted to a 3-parametric logistic equation, allowing for the determination of EC50 values. Each data point was analysed in triplicate.

[4] = biological target: T3, mGlu8 receptor (Homo sapiens, UniProt O00222); experiment: cAMP accumulation assay in cells expressing mGlu8 receptor (agonist, PAM, NAM modes); format: cell-based; details: 10 µM, agonist mode
T3 construct: mGlu4 receptor NM_000841, mGlu7 receptor NM_000844.2, and mGlu8 receptor NM_000845; expressed in transfected cells; host or cells: T-REx 293
T3 sequence (O00222 34-908): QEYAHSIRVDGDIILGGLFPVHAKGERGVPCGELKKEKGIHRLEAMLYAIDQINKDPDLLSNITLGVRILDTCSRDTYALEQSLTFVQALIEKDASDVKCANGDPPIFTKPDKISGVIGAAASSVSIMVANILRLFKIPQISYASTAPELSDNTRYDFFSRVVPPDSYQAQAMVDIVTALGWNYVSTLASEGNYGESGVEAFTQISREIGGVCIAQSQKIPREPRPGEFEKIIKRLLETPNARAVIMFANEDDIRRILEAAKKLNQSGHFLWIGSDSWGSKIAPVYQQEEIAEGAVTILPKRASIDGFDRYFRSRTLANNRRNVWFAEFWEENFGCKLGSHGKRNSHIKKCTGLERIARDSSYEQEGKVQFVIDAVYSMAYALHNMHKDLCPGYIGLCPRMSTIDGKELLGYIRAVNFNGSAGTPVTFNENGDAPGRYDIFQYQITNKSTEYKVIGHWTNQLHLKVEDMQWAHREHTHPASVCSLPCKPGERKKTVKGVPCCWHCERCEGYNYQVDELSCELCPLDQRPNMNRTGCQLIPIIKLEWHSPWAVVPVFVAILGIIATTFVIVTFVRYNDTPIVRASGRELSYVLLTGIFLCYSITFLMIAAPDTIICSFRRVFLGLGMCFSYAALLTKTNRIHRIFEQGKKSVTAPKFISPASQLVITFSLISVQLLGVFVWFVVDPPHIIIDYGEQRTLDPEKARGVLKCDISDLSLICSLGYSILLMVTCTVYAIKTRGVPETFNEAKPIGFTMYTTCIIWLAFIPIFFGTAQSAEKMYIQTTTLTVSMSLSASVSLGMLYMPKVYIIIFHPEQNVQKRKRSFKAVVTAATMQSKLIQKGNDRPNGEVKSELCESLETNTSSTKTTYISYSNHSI
Experimental: as §1, §2, §3

[5] = 2.5 mg/kg i.p., 60 min before test
[6] = 10 mg/kg i.p., 60 min before test
[7] = over the doses 2.5, 5 and 10 mg/kg i.p.

Row | SMILES | effect on DOI-induced HTR [1, 5] | effect on DOI-induced HTR ([1]; 5 mg/kg i.p., 60 min before test) | effect on DOI-induced HTR [1, 6] | effect on DOI-induced HTR [1, 7] | agonistic activity at mGlu7 receptor [2] | EC50 [3] [nM] | Emax [3] [%] | Fold shift of L-Glu dose-response curve [3] | agonistic activity at mGlu8 receptor [4]
1 | O=C(Nc1ccc(-c2noc(-c3ccccc3Cl)n2)c(C(F)(F)F)c1)c1ccccn1 [Compound 60] | significant reductions in the HTR score | not statistically significant | significant reductions in the HTR score | significant anxiolytic- and antipsychotic-like properties | direct agonistic activity | 390 | 120 | 2.94 (0.1)^d | direct agonistic activity
2 | COc1cc(NC(=O)c2ccccn2)ccc1-c1noc(-c2ccccc2Cl)n1 [Compound 34] | statistically significant effect; also recorded: significant reductions in the HTR score | – | statistically significant effect; also recorded: significant reductions in the HTR score | significant anxiolytic- and antipsychotic-like properties | direct agonistic activity | 656 | 114 | 13.4 (2.00)^d | direct agonistic activity
3 | O=C(Nc1ccc(-c2noc(-c3ccccc3Cl)n2)c(Cl)c1)c1ccccn1 [Compound 52, N-(3-chloro-4-(5-(2-chlorophenyl)-1,2,4-oxadiazol-3-yl)phenyl)picolinamide] | – | – | – | significant anxiolytic- and antipsychotic-like properties; also recorded: at all doses significantly reduced; also recorded: Clear dose-response effects | direct agonistic activity | 282 | 123 | 8.03 (0.76)^d | direct agonistic activity
4 | COc1cc(NC(=O)c2ccccn2)ccc1-c1noc(-c2ccccc2F)n1 [Compound 37] | – | – | – | significant anxiolytic- and antipsychotic-like properties; also recorded: reversed the DOI-induced effect at all investigated doses; also recorded: dose-dependent reverse effects | direct agonistic activity | 393 | 116 | 3.68 (0.19)^d | direct agonistic activity
